{"source": "paper PMC10254233", "about": "“Synthesis and In Vitro Biological Evaluation of p-Carborane-Based Di-tert-butylphenol Analogs” (Molecules, 2023)", "key": {"5-LO": {"molecular_target": "T1, 5-LO (Homo sapiens, UniProt P09917)", "T1 sequence (P09917 1-674)": "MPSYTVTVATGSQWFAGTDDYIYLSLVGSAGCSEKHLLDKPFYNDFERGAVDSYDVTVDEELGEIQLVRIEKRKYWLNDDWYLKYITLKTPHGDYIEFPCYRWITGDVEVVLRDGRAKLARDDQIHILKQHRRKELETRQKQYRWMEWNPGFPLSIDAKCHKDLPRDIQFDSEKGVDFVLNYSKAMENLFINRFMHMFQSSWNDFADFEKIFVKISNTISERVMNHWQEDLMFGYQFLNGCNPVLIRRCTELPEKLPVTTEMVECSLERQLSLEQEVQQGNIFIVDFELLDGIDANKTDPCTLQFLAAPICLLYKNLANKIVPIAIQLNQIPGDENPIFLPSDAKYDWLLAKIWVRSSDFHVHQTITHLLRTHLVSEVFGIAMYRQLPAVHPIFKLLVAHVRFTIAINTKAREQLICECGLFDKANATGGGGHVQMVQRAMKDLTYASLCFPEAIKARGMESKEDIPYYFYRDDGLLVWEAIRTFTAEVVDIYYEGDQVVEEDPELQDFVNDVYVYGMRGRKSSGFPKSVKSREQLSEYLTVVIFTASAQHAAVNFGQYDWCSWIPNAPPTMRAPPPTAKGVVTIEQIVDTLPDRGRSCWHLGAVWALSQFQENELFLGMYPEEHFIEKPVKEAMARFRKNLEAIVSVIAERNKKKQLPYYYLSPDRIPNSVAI", "assay": "5-LO product formation in intact PMNL", "conditions": "PMNL, read-out: inhibition of 5-LO product formation", "procedure": "After 10 min at 37 °C, the reaction was stopped by addition of ice-cold methanol (1 mL). HCl (30 μL, 1 M), prostaglandin B1 (200 ng) and PBS (500 μL) were added and the formed metabolites were extracted and analyzed by HPLC as described previously [96]."}, "A549 lung adenocarcinoma [1]": {"test_system": "A549 lung adenocarcinoma", "assay": "Cell viability, crystal violet (CV) assay, A549", "assay_type": "cell-based", "conditions": "Homo sapiens, 72 h, mean ± SD", "protocol": "(§1) Five human cell lines (A375 melanoma, A549 lung adenocarcinoma, HCT116 and HT29 colorectal carcinoma, MDA-MB-231 triple-negative breast adenocarcinoma) were used to study the antitumor effects of the di-tert-butylphenols and their respective carborane analogs. All selected cell lines were derived from inflammation-associated tumors.\n(§2) After the incubation period, the supernatant was discarded from the wells, and the cells were washed two times with 200 µL of PBS. Next, MTT solution at a final concentration of 0.5 mg/mL was added and incubated at 37 °C until purple formazan crystals were formed (30 min to one hour). After incubation, the dye was discarded. In order to dissolve the formed formazan crystals DMSO was added, and the absorbance was measured at λmax = 540 nm, with the reference/background wavelength of 670 nm. All results are expressed as a percentage of the control value which was arbitrary set to 100%. After 72 h treatment, cells were washed with 200 µL of PBS and fixed with 4% paraformaldehyde (PFA) for 15 min at room temperature (RT). Next, cells were stained with 1% CV solution. After 20 min, cells were washed in tap water and dried on air. Dye was dissolved in 33% acetic acid and the absorbance was measured at λmax = 540 nm, with the reference/background wavelength of 670 nm. Results were expressed as a percentage of the control value which was arbitrary set to 100%.\n(§3) 1. General methods, materials, and procedures\n(§4) 1.1.1. Reagents and cells\n(§5) Reagents and cells were obtained from following manufacturers: Capricorn Scientific GmbH (Hessen, Germany) – Culture medium RPMI-1640, Dulbecco's Modified Eagle Medium (DMEM), and fetal bovine serum (FBS). Serva (Heidelberg, Germany) – Paraformaldehyde (PFA). Sigma (St. Louis, MO, USA) – Ethylenediaminetetraacetic acid (EDTA), Dimethyl sulfoxide (DMSO), chloroquine, CV, Triton X-100, RNase, PI, PBS, 3-MA, CFSE, and fluorescent mounting medium. AppliChem (MO, USA) –MTT. Thermo Fisher Scientific (Waltham, MA, USA) – DHR. R&D Systems (Minneapolis, MN, USA) – ApoStat. BD (Pharmingen, San Diego, SAD) – Annexin V-FITC (AnnV). Biological Industries (Cromwell, CT, USA) – Penicillin Streptomycin solution. […]\n(§6) Afterwards, cells were washed with phosphate-buffered saline (PBS) and stained with AnnV (15 μg/mL) and PI (15 μg/mL). After 15 min incubation at room temperature (RT) protected from light the cells were resuspended in AnnV-binding buffer and analysed using flow cytom-etry. HCT116 cells were incubated with pan-caspase inhibitor Apostat for 30 min at 37 °C to determine whether detected apoptosis was mediated by caspase activation. Afterwards, cells were washed with PBS and analyzed using flow cytometry. […] Afterwards cells were washed with PBS, resuspended and analyzed by flow cytometry (CyFlow® Space Partec using the PartecFloMax® software"}, "A549 lung adenocarcinoma [2]": {"test_system": "A549 lung adenocarcinoma", "assay": "Cell viability, MTT assay, A549", "assay_type": "cell-based, human", "conditions": "Homo sapiens, A549; 72 h, mean ± SD", "protocol": "as §1, §2, §3, §4\n(§7) Reagents and cells were obtained from following manufacturers: Capricorn Scientific GmbH (Hessen, Germany) – Culture medium RPMI-1640, Dulbecco's Modified Eagle Medium (DMEM), and fetal bovine serum (FBS). Serva (Heidelberg, Germany) – Paraformaldehyde (PFA). Sigma (St. Louis, MO, USA) – Ethylenediaminetetraacetic acid (EDTA), Dimethyl sulfoxide (DMSO), chloroquine, CV, Triton X-100, RNase, PI, PBS, 3-MA, CFSE, and fluorescent mounting medium. AppliChem (MO, USA) –MTT. Thermo Fisher Scientific (Waltham, MA, USA) – DHR. R&D Systems (Minneapolis, MN, USA) – ApoStat. BD (Pharmingen, San Diego, SAD) – Annexin V-FITC (AnnV). Biological Industries (Cromwell, CT, USA) – Penicillin Streptomycin solution. American Type Culture Collection (ATCC, Manassas, Virginia, USA) – Human lung carcinoma (A549), human breast adenocarcinoma (MDA-MB-231), human colorectal ade-nocarcinoma (HT-29), human colorectal carcinoma (HCT116) and human melanoma (A375).\n(§8) Cell lines (A375, HCT116, HT-29 and MDA-MB-231) were cultivated in HEPES-buffered RPMI-1640 medium while A549 cell line was cultivated in Dulbecco's Modified Eagle Medium (DMEM) which were previously supplemented with 10% heat-inactivated FBS, penicillin (100 units/mL), and streptomycin (100 μg/mL). All cells were kept at 37 °C in a humidified atmosphere with 5% CO2. For viability determi-nation cells were seeded at following densities in 96-well plates: 4 x 10^3 cells/well (A375, HT-29 and MDA-MB-231), 5 x 10^3 cells/well (HCT116), and 3 x 10^3 cells/well (A549). […]\n(§9) Afterwards, cells were washed with phosphate-buffered saline (PBS) and stained with AnnV (15 μg/mL) and PI (15 μg/mL). After 15 min incubation at room temperature (RT) protected from light the cells were resuspended in AnnV-binding buffer and analysed using flow cytom-etry. HCT116 cells were incubated with pan-caspase inhibitor Apostat for 30 min at 37 °C to determine whether detected apoptosis was mediated by caspase activation. Afterwards, cells were washed with PBS and analyzed using flow cytometry. HCT116 cells were stained with 1 µg/mL of AO solution for 15 min at 37 °C to detect the presence of autophagic cell death. Afterwards cells were washed with PBS, resuspended and analyzed by flow cytometry (CyFlow® Space Partec using the PartecFloMax® software"}, "[3]": {"test_system": "MDA-MB-231 triple-negative breast adenocarcinoma", "assay": "Cell viability, MTT assay, MDA-MB-231", "assay_type": "cell-based, human", "conditions": "Homo sapiens, MDA-MB-231; 72 h, mean ± SD", "protocol": "as §1, §2, §3, §4, §7, §8, §9"}, "A375 melanoma [4]": {"test_system": "A375 melanoma", "assay": "Cell viability, MTT assay, A375", "assay_type": "cell-based, human", "conditions": "Homo sapiens, A-375; 72 h, mean ± SD", "protocol": "as §1, §2, §3, §4, §7, §8\n(§10) Afterwards, cells were washed with phosphate-buffered saline (PBS) and stained with AnnV (15 μg/mL) and PI (15 μg/mL). […]\n(§11) PBS and analyzed using flow cytometry. HCT116 cells were stained with 1 µg/mL of AO solution for 15 min at 37 °C to detect the presence of autophagic cell death. Afterwards cells were washed with PBS, resuspended and analyzed by flow cytometry (CyFlow® Space Partec using the PartecFloMax® software"}, "[5]": {"test_system": "HCT116 colorectal carcinoma", "assay": "Cell viability, crystal violet (CV) assay, HCT116", "assay_type": "cell-based", "conditions": "Homo sapiens, HCT-116; 72 h, mean ± SD", "protocol": "as §1, §2, §3, §4, §5, §6"}, "[6]": {"test_system": "HT-29 colorectal carcinoma", "assay": "Cell viability, crystal violet (CV) assay, HT-29", "assay_type": "cell-based", "conditions": "Homo sapiens, 72 h, mean ± SD", "protocol": "as §1, §2, §3, §4, §5, §6"}, "[7]": {"test_system": "HCT116 colorectal carcinoma", "assay": "Cell viability, MTT assay, HCT116", "assay_type": "cell-based, human", "conditions": "Homo sapiens, HCT-116; 72 h, mean ± SD", "protocol": "as §1, §2, §3, §4, §7, §8, §10, §11"}, "A375 melanoma [8]": {"test_system": "A375 melanoma", "assay": "Cell viability, crystal violet (CV) assay, A375", "assay_type": "cell-based", "conditions": "Homo sapiens, A-375; 72 h, mean ± SD", "protocol": "as §1, §2, §3, §4, §5, §6"}, "physchem": {"assay": "physchem", "conditions": "pH 7.4"}, "[9]": {"test_system": "MDA-MB-231 triple-negative breast adenocarcinoma", "assay": "Cell viability, crystal violet (CV) assay, MDA-MB-231", "assay_type": "cell-based", "conditions": "Homo sapiens, 72 h, mean ± SD", "protocol": "as §1, §2, §3, §4, §5, §6"}, "[10]": {"test_system": "HT-29 colorectal carcinoma", "assay": "Cell viability, MTT assay, HT-29", "assay_type": "cell-based, human", "conditions": "Homo sapiens, HT-29; 72 h, mean ± SD", "protocol": "as §1, §2, §3, §4, §7, §8, §9"}, "[11]": {"test_system": "primary peritoneal exudate cells", "assay": "Viability of primary peritoneal exudate cells, CV assay", "assay_type": "cell-based", "conditions": "72 h, cells from healthy mice", "procedure": "Primary peritoneal exudates cells (PEC) isolated from C57BL/6 mice were used to estimate the selec-\nMice were obtained from the animal facility at the Institute for Biological Research “Siniša Stanković” - National Institute of the Republic of Serbia, University of Belgrade (Belgrade, Serbia). PEC were cultivated in HEPES-buffered (HEPES = 4-\n5% heat-inactivated fetal bovine serum (FBS) and antibiotics under standard growth conditions (37 °C, 5% CO2). For viability determination cells were seeded at a density of 2 x 10^5 cells/well in 96-well plates.\nNon-adherent cells were removed two hours after seeding and treatment was applied. Cell viability was determined after 72 h using a crystal violet (CV) assay.\nthe indicated concentrations for 72 h. Cell viability was determined by the CV test. The data are presented as a mean ± SD from one repre-\nsentative out of three independent experiments. *p<0.05 refer to untreated cultures."}}, "data": [{"smiles": "CC(=O)N(O)C/C=C/c1cccc(Oc2ccccc2)c1", "note": "[BWA4C, N-[(E)-3-(3-Phenoxyphenyl)prop-2-enyl]acetohydroxamic acid]", "values": [{"measurement": "inhibition at 0.1 µM", "setting": "5-LO", "result": 92.5, "unit": "%"}]}, {"smiles": "CON1CCC(=Cc2cc(C(C)(C)C)c(O)c(C(C)(C)C)c2)C1=O", "note": "[Compound E-5110, 3-([3,5-bis(1,1-dimethylethyl)-4-hydroxyphenyl]methylene)-1-methoxy-2-pyrrolidinone]", "values": [{"measurement": "IC50", "setting": "A549 lung adenocarcinoma [1]", "result": "41.1 ± 4.3", "unit": "µM"}, {"measurement": "IC50", "setting": "A549 lung adenocarcinoma [2]", "result": "22.1 ± 1.6", "unit": "µM"}, {"measurement": "IC50", "setting": "[3]", "result": "34.2 ± 1.2", "unit": "µM"}, {"measurement": "IC50", "setting": "A375 melanoma [4]", "result": "12.9 ± 1.1", "unit": "µM"}, {"measurement": "IC50", "setting": "[5]", "result": "39.6 ± 2.8", "unit": "µM"}, {"measurement": "IC50", "setting": "[6]", "result": "39.8 ± 2.1", "unit": "µM"}, {"measurement": "IC50", "setting": "[7]", "result": "25.1 ± 1.1", "unit": "µM"}, {"measurement": "IC50", "setting": "A375 melanoma [8]", "result": "33.5 ± 1.7", "unit": "µM"}, {"measurement": "chromatographic logD", "setting": "physchem", "result": 3.35}, {"measurement": "IC50", "setting": "[9]", "result": "47.3 ± 1.7", "unit": "µM"}, {"measurement": "IC50", "setting": "[10]", "result": "25.6 ± 2.6", "unit": "µM"}]}, {"smiles": "CC(C)(C)c1cc(C(=O)c2cccs2)cc(C(C)(C)C)c1O", "note": "[Compound R-830, 2,6-di-tert-butyl-4-(2’-thenoyl)phenol]", "values": [{"measurement": "IC50", "setting": "A549 lung adenocarcinoma [1]", "result": "32.6 ± 1.3", "unit": "µM"}, {"measurement": "IC50", "setting": "A549 lung adenocarcinoma [2]", "result": "19 ± 0.7", "unit": "µM"}, {"measurement": "IC50", "setting": "[3]", "result": "33.3 ± 1.2", "unit": "µM"}, {"measurement": "IC50", "setting": "A375 melanoma [4]", "result": "16.7 ± 3.1", "unit": "µM"}, {"measurement": "IC50", "setting": "[5]", "result": "30.8 ± 3.2", "unit": "µM"}, {"measurement": "IC50", "setting": "[6]", "result": "24.9 ± 1.3", "unit": "µM"}, {"measurement": "viability of primary peritoneal exudate cells", "setting": "[11]", "result": "diminished the viability of primary cells at 100 µM"}, {"measurement": "IC50", "setting": "[7]", "result": "20.6 ± 0.4", "unit": "µM"}, {"measurement": "IC50", "setting": "A375 melanoma [8]", "result": "29.4 ± 2.3", "unit": "µM"}, {"measurement": "chromatographic logD", "setting": "physchem", "result": 3.91}, {"measurement": "IC50", "setting": "[9]", "result": "34 ± 1.6", "unit": "µM"}, {"measurement": "IC50", "setting": "[10]", "result": "19.4 ± 0.4", "unit": "µM"}]}]}
